Laboratory results reported in patent US20090176726A1, “METHODS FOR TREATING MITF-RELATED DISORDERS” (priority 2005, published 2009).
Read-outs that look alike come from different tables or passages of the source.

Columns and labels:
HIF-1α [1] = format: cell-based, human
MITF [2] = assay: MITF protein level in human melanoma cells (UACC62); format: cell-based
HIF-1α [3] = assay: HIF-1α protein level in human melanoma cells (UACC62); format: cell-based
FoxD1 = format: cell-based, human
MITF [4] = format: cell-based, human
MITF mRNA = format: cell-based, human
MITF [5] = assay: MITF expression in UACC62 cells transfected with constitutive MITF vector or empty vector; format: cell-based, human; conditions: increasing levels of DMOG
Description: (§1) Human melanoma cells (UACC62) were transfected with a vector that constitutively expresses MITF off a promoter different from its natural promoter. As a control, other cells were transfected with empty vector. Both cell types were exposed to increasing levels of DMOG, which mimics certain aspects of hypoxia in upregulating HIF.

[6] = tested on: Human melanoma cells (UACC62); assay: Cell death of transfected UACC62 cells exposed to DMOG; format: cell-based
Description: as §1

[7] = UACC62 cells, 200 μM DFO, 0, 2, 6, 8 and 24 hrs, FIG. 4B
[8] = UACC62 cells transformed with empty vector

[Cl-].[Cl-].[Co+2] [CoCl2] was tested, and the “level of HIF-1α” value (HIF-1α [1]) was “increased as CoCl2 was increased”, the MITF protein levels (MITF [2]) was “decreased” and the “downregulation of MITF by CoCl2” value (MITF [2]) was “substantially blocked”. The “level of MITF protein” value (MITF [2]) was “decreased”, the HIF-1α levels (HIF-1α [3]) was “increased” and the “level of HIF-1α protein” value (HIF-1α [3]) was “increased”. For the same compound, the “FoxD1 expression (microarray)” value (FoxD1) was “upregulated”, the “level of MITF protein” value (MITF [4]) was “decreased as CoCl2 was increased” and the “MITF mRNA levels” value (MITF mRNA) was “decreased”.

CC(=O)N(O)CCCCCNC(=O)CCC(=O)N(O)CCCCCNC(=O)CCC(=O)N(O)CCCCCN [DFO, desferrioxamine] was tested, and the MITF protein levels (MITF [2]; [7]) was “decreased steadily” and the HIF-1α protein levels (HIF-1α [3]; [7]) was “increased steadily”.

With COC(=O)CNC(=O)C(=O)OC [DMOG, dimethyl-oxalylglycine] the MITF expression (MITF [5]; [8]) was “significant decrease”, the MITF expression (MITF [5]; UACC62 cells transformed with vector that constitutively expresses MITF) was “did not exhibit a detectable decrease” and the “level of MITF protein” value (MITF [2]; UACC62 cells, 1 mM DMOG, 0, 2, 6, 8 and 24 hrs, FIG. 4A) was “decreased”. For the same compound, the “HIF-1α levels at 24 hours” value (HIF-1α [3]; UACC62 cells, 1 mM DMOG, 24 hours compared with 8 hours, FIG. 4A) was “somewhat lower than at 8 hours”, the “HIF-1α protein level, 2 to 8 hours” value (HIF-1α [3]; UACC62 cells, 1 mM DMOG, FIG. 4A) was “increased steadily” and the cell death ([6]; UACC62 cells that constitutively express MITF, at DMOG levels lethal to empty vector cells) was “protected from cell death”. The cell death [6, 8] was “lethal”.
